From ChEMBL document CHEMBL2074572, “Limited distribution of new quinolone antibacterial agents into brain caused by multiple efflux transporters at the blood-brain barrier” (J Pharmacol Exp Ther, 2000)

Key:
[1] = target: Multidrug resistance-associated protein 1 (Homo sapiens, UniProt P33527); test: TP_TRANSPORTER: decrease in intracellular accumulation in HL60 and HL60/ADM cells; format: functional, cell-based
[2] = target: P-glycoprotein 1 and 3 (MDR1a/MDR1b) (Mus musculus, UniProt P21447+P06795); test: TP_TRANSPORTER: increase in brain concentration in mdr1a/1b(-/-) mouse; format: functional, organism-based; details: in vivo

Multidrug resistance-associated protein 1, sequence (P33527 whole entry): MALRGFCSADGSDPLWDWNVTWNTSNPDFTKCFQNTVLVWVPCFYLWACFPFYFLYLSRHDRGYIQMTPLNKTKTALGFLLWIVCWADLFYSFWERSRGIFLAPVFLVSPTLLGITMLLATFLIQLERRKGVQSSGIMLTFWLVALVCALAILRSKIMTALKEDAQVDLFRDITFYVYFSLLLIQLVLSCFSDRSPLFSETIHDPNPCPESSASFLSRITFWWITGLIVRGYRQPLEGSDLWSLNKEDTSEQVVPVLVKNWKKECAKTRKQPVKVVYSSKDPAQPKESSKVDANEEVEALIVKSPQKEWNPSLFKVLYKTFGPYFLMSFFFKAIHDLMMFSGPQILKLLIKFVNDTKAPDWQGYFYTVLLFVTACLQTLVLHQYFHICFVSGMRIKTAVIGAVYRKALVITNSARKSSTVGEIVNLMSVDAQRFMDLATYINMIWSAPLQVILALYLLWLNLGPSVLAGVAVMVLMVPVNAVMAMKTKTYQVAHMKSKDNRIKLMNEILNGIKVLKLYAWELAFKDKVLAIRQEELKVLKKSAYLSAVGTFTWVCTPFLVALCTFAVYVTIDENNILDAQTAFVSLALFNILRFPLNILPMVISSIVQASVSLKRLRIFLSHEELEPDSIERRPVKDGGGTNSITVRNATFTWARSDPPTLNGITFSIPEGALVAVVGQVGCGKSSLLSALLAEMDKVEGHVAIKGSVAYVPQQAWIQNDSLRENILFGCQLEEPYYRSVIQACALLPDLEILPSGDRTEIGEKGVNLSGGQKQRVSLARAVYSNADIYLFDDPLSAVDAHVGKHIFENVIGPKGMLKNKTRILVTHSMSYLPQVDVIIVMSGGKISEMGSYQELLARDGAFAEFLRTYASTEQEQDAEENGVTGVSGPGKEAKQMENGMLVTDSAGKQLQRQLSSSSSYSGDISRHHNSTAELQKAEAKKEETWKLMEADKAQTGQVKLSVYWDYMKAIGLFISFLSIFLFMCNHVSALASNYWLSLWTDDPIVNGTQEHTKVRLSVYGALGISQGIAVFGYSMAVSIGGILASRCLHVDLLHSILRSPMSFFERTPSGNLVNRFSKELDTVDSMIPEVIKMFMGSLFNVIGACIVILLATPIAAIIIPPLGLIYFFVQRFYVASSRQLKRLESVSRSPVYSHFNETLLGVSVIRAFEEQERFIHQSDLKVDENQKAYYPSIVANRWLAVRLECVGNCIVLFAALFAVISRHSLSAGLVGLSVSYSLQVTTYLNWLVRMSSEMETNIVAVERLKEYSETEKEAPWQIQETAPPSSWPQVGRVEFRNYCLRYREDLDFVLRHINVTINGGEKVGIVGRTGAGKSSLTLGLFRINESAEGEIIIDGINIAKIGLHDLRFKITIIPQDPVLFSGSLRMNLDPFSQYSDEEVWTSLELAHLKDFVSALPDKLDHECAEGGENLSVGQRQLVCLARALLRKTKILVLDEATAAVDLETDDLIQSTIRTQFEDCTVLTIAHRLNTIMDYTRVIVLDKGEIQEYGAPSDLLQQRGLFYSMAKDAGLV

Row | SMILES | Activity [1] | Activity [2]
1 | Cc1c(F)c(N2CCNC(C)C2)cc2c1c(=O)c(C(=O)O)cn2C1CC1 (configuration not stated) [GREPAFLOXACIN] | substrate [+] | –
2 | C[C@@H]1CN(c2c(F)c(N)c3c(=O)c(C(=O)O)cn(C4CC4)c3c2F)C[C@H](C)N1 [SPARFLOXACIN] | – | substrate [+]
